Data set [1] deals with casein kinase 1 epsilon (CK1 epsilon) (Homo sapiens (Human), UniProt P49674). Briefly: Test A: inhibitory activity on CK1 epsilon, casein phosphorylation assay on ATP-33P filter plate. The following applies: IC50 values or IC50 ranges (result of several experiments), ATP 10 μM final. The format is biochemical. Summed up:
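Human CK1 epsilon (3 ng/μL final) phosphorylates dephosphorylated casein (0.2 μg/μL) with ATP-33P plus 10 μM cold ATP (KM for ATP 21 μM), 2 h at room temperature, pH 7.5 Tris buffer. TCA-precipitated protein counted by scintillation; compounds at 10 to 0.001 μM give IC50 values or % inhibition at 10 μM.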

20 compounds from patent US9233965B2, “3,4-dihydropyrrolo[1,2-A]pyrazine-2,8(1H)-dicarboxamide derivatives, preparation thereof and therapeutic use thereof for diseases involving casein kinase 1 epsilon and/or casein kinase 1 delta” (SANOFI, priority 2010, dated 2016) can be followed below.

Usually IC50 stands for the point on the concentration scale where inhibition reaches its midpoint. A low value points to greater potency. In general, melting point refers to the temperature, or range, at which the solid turns liquid.

casein kinase 1 epsilon (CK1 epsilon), sequence (P49674 whole entry): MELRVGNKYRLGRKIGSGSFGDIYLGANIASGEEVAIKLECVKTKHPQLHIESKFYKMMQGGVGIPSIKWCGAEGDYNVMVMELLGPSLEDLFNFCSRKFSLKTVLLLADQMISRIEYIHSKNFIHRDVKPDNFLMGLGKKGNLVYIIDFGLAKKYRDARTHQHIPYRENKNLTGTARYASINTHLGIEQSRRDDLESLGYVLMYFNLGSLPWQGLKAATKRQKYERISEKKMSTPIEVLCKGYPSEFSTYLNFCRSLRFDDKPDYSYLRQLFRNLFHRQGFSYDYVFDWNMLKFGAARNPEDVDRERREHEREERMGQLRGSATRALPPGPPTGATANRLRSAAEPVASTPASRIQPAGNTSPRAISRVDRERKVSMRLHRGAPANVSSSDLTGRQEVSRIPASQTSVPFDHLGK

`NC(=O)c1c(-c2ccccc2)c(Cl)n2c1CN(C(=O)NC1CCCCC1)CC2` [Compound 82, 6-chloro-N^2-cyclo-hexyl-7-phenyl-3,4-dihydropyrrolo[1,2-a]pyrazine-2,8(1H)-dicarboxamide] displayed a melting point of 208 to 209 °C. Further, the IC50 in data set [1] lay in the range of 1 to 7 nM.

Compound `N#Cc1c(-c2cccc(F)c2)c(C(N)=O)c2n1CCN(C(=O)NC1CCOCC1)C2` [Compound 109, 6-cyano-7-(3-fluorophenyl)-N^2-(tetrahydro-2H-pyran-4-yl)-3,4-dihydropyrrolo[1,2-a]pyrazine-2,8(1H)-dicarboxamide] came in with a melting point of 232 to 234 °C. Half-maximal inhibition in data set [1] (IC50) required 9 nM.

In the case of `COc1ccc(-c2c(C(N)=O)c3n(c2C2CC2)CCN(C(=O)NC24CC5CC(CC(C5)C2)C4)C3)cc1` [Compound 55, N^2-(adamantan-1-yl)-6-cyclo-propyl-7-(4-methoxyphenyl)-3,4-dihydropyrrolo[1,2-a]pyrazine-2,8(1H)-dicarboxamide], the melting point fell in the range of 224 to 226 °C. In data set [1], this compound returned an IC50 of 3 to 5 nM.

As for `Cc1cccc(-c2c(C(N)=O)c3n(c2Cl)CCN(C(=O)NC2CCOCC2)C3)c1` [Compound 94, 6-chloro-7-(3-methylphenyl)-N^2-(tetrahydro-2H-pyran-4-yl)-3,4-dihydropyrrolo[1,2-a]pyrazine-2,8(1H)-dicarboxamide], the melting point was in the range of 231 to 234 °C. Also, the IC50 in data set [1] was in the range of 2 to 18 nM.

With `CC(C)(CO)CNC(=O)N1CCn2c(Cl)c(-c3cccc(F)c3)c(C(N)=O)c2C1` [Compound 73, 6-chloro-7-(3-fluorophenyl)-N^2-(3-hydroxy-2,2-dimethylpropyl)-3,4-dihydropyrrolo[1,2-a]pyrazine-2,8(1H)-dicarboxamide], the melting point was 205 to 207 °C. Further, in data set [1], the IC50 lay within 1 to 11 nM.

In turn, `COCC(C)(C)NC(=O)N1CCn2c(c(C(N)=O)c(-c3ccc(OC)cc3)c2C2CC2)C1` [Compound 57, 6-cyclo-propyl-N^2-(1-methoxy-2-methylpropan-2-yl)-7-(4-methoxyphenyl)-3,4-dihydropyrrolo[1,2-a]pyrazine-2,8(1H)-dicarboxamide] showed a melting point of 168 to 170 °C. In data set [1], the IC50 stood at 36 nM.

In turn, `CC(C)(C)NC(=O)N1CCn2c(Br)c(-c3cccc(F)c3)c(C(N)=O)c2C1` [Compound 104, 6-bromo-7-(3-fluorophenyl)-N^2-tert-butyl-3,4-dihydropyrrolo[1,2-a]pyrazine-2,8(1H)-dicarboxamide] had a melting point of 184 to 189 °C. Besides, the IC50 in data set [1] is under 1 nM.

On to `NC(=O)c1c(-c2ccccc2)c(Cl)n2c1CN(C(=O)NCC(F)(F)F)CC2` [Compound 76, 6-chloro-7-phenyl-N^2-(2,2,2-trifluoroethyl)-3,4-dihydropyrrolo[1,2-a]pyrazine-2,8(1H)-dicarboxamide], for which the melting point is 210 to 213 °C. This compound had an IC50 in data set [1] of 10 to 27 nM.

For `N#Cc1c(-c2cccc(F)c2)c(C(N)=O)c2n1CCN(C(=O)NC1CCC(F)(F)CC1)C2` [Compound 110, 6-cyano-N^2-(4,4-difluoro-cyclohexyl)-7-(3-fluorophenyl)-3,4-dihydropyrrolo[1,2-a]pyrazine-2,8(1H)-dicarboxamide], the melting point is 237 to 240 °C. Moreover, in data set [1], the IC50 was under 1 nM.

The compound `CC(C)(C)NC(=O)N1CCn2c(Cl)c(-c3cccc(F)c3)c(C(N)=O)c2C1` [Compound 67, N^2-tert-butyl-6-chloro-7-(3-fluorophenyl)-3,4-dihydropyrrolo[1,2-a]pyrazine-2,8(1H)-dicarboxamide] returned a melting point of 196 to 198 °C. The IC50 in data set [1] is 1 to 5 nM.

The compound `NC(=O)c1c(-c2cccc(F)c2)c(Cl)n2c1CN(C(=O)NC1CCOCC1)CC2` [Compound 98, 6-chloro-7-(3-fluorophenyl)-N^2-(tetrahydro-2H-pyran-4-yl)-3,4-dihydropyrrolo[1,2-a]pyrazine-2,8(1H)-dicarboxamide] registered a melting point of 223 to 225 °C. The compound also gave an IC50 in data set [1] of 2 to 16 nM.

For the compound `N#Cc1c(-c2cccc(F)c2)c(C(N)=O)c2n1CCN(C(=O)NCCCC(F)(F)F)C2` [Compound 108, 6-cyano-7-(3-fluorophenyl)-N^2-(4,4,4-trifluoro-butyl)-3,4-dihydropyrrolo[1,2-a]pyrazine-2,8(1H)-dicarboxamide], the melting point lay within 169 to 171 °C. Moreover, the IC50 in data set [1] was 4 nM.

Take `C[C@H](NC(=O)N1CCn2c(C#N)c(-c3cccc(F)c3)c(C(N)=O)c2C1)C(F)(F)F` [Compound 106, 6-cyano-7-(3-fluorophenyl)-N^2-((2S)-1,1,1-trifluoropropan-2-yl)-3,4-dihydropyrrolo[1,2-a]pyrazine-2,8(1H)-dicarboxamide]: the melting point lay within 176 to 178 °C. This compound also gave an IC50 in data set [1] of 2 nM.

In turn, `NC(=O)c1c(-c2ccccc2)c(Cl)n2c1CN(C(=O)NC1CCOCC1)CC2` [Compound 93, 6-chloro-7-phenyl-N^2-(tetrahydro-2H-pyran-4-yl)-3,4-dihydropyrrolo[1,2-a]pyrazine-2,8(1H)-dicarboxamide] yielded a melting point of 227 to 229 °C. Besides, the IC50 in data set [1] was in the range of 21 to 28 nM.

In turn, `NC(=O)c1c(-c2cccc(OC(F)(F)F)c2)c(Cl)n2c1CN(C(=O)NC1CCOCC1)CC2` [Compound 97, 6-chloro-N^2-(tetrahydro-2H-pyran-4-yl)-7-[3-(trifluoromethoxy)phenyl]-3,4-dihydropyrrolo[1,2-a]pyrazine-2,8(1H)-dicarboxamide] showed a melting point of 203 to 205 °C. This compound gave an IC50 in data set [1] of 122 nM.

For `Cc1cccc(-c2c(C(N)=O)c3n(c2Cl)CCN(C(=O)NC(C)(C)C)C3)c1` [Compound 61, N^2-tert-butyl-6-chloro-7-(3-methylphenyl)-3,4-dihydropyrrolo[1,2-a]pyrazine-2,8(1H)-dicarboxamide], the melting point lay in the range of 196 to 197 °C. The compound further registered an IC50 in data set [1] of 1 to 8 nM.

In the case of `NC(=O)c1c(-c2ccccc2)c(Cl)n2c1CN(C(=O)NC1CCOC1)CC2` (stereo not shown) [Compound 92, 6-chloro-7-phenyl-N^2-(tetrahydrofuran-3-yl)-3,4-dihydropyrrolo[1,2-a]pyrazine-2,8(1H)-dicarboxamide], the melting point lay within 181 to 185 °C. The IC50 in data set [1] was in the range of 11 to 13 nM.

The compound `CC(C)(C)NC(=O)N1CCn2c(c(C(N)=O)c(-c3ccc(Oc4ccccc4)cc3)c2C2CC2)C1` [Compound 39, N^2-tert-butyl-6-cyclo-propyl-7-(4-phenoxyphenyl)-3,4-dihydropyrrolo[1,2-a]pyrazine-2,8(1H)-dicarboxamide] came in with a melting point of 157 to 159 °C. Moreover, in data set [1], the IC50 was in the range of 4 to 36 nM.

With `NC(=O)c1c(-c2cccc(F)c2)c(Cl)n2c1CN(C(=O)NC1CCC(F)(F)CC1)CC2` [Compound 89, 6-chloro-N^2-(4,4-difluoro-cyclo-hexyl)-7-(3-fluorophenyl)-3,4-dihydropyrrolo[1,2-a]pyrazine-2,8(1H)-dicarboxamide], the melting point lay in the range of 212 to 214 °C. In data set [1], the half-inhibitory concentration (IC50) lay within 1 to 3 nM.

Turning to `NC(=O)c1c(-c2cccc(F)c2)c(Cl)n2c1CN(C(=O)NC1COC1)CC2` [Compound 90, 6-chloro-7-(3-fluorophenyl)-N^2-(oxetan-3-yl)-3,4-dihydropyrrolo[1,2-a]pyrazine-2,8(1H)-dicarboxamide], the melting point lay in the range of 184 to 186 °C. In data set [1], this compound registered an IC50 of 6 to 7 nM.
